For data set [1] the following is noted: cited from earlier work; for pKas: Table 1, acidic herbicide; for pKa: imidazolinone acids.
The subject of the next data set is wheat. The data set is described as follows: greenhouse visual injury rating, Examples 9-10, wheat. Format: in vivo. The following applies: Two Week. From the text: (§1) Each treatment in the experiment was replicated three times. An untreated control was also included in the experiment.
(§2) These treatments were compared to PCC-1190 and PCC-1189 without the addition of an acidifying agent, a standard imidazolinone acid formulation (PURSUIT and SCEPTER), and an untreated control.
(§3) For the experiments, greenhouse flats 26 cm by 6 cm deep were filled with Metro Mix 350 potting soil. The soil was pre-wetted before filling the flats. Six furrows were pressed into the soil in each flat using a custom designed form. Corn, tame oats, velvet leaf (not used in Example 10), wheat, pinto beans, and sunflower were planted in each tray. One species was planted in each of the six rows in each flat. Five seeds were planted in each row of corn, pinto bean, and sunflower. Six seeds were planted in each row of tame oat and wheat. Because velvet leaf seeds were so small, the seeds were sprinkled in each row and the number of such seeds were not counted. Each flat was covered with 2 cm of Metro Mix 350 potting soil and placed in the greenhouse. Greenhouse conditions were 28/20 C day/night temperatures and 16/8 h day/night periods. Light was supplemented with 400 W sodium halide lights. The plants were allowed to germinate and grow in the greenhouse for 2 weeks and then treated. Treatments were mixed using serial dilutions. Each dilution reduced the herbicide rate by one half. All acidifying agents (e.g., PCC-I174, LI-136, sulfuric acid, and phosphoric acid) were calculated and mixed to provide acid concentrations of 0.9%.
(§4) At the time of treatment, crops were at the following stages: corn—2 to 3 lf, tame oat—2 to 3 lf, velvet leaf 2 if (not used in Example 10), pinto bean—2-3 lf, wheat—4 to 5 lf, and sunflower-2 lf. Plants were treated using a greenhouse track sprayer equipped with an 8001E nozzle and calibrated to deliver 140 L ha-1 at the height of the crop canopy. Each treatment was simultaneously applied to three trays of plants, one for each replicate. After treatment, the plants were left in the head house to dry and then transferred to the greenhouse. Plants in each treatment were evaluated visually for injury 1 week and 2 weeks after treatment.
(§5) The injury caused by the herbicide treatment was rated visually. […] All the plants of each species in each replication were given a single rating. A rating of 0=no injury—the plants look the same as the untreated. A rating of 100=dead—usually highly necrotic, brown and no chance of producing seed.
(§6) The ingredients of the herbicide compositions as applied are listed in the following tables, and were diluted with water and used at the rates indicated for herbicide ingredients and acidifying agents.

The next data set deals with corn. The data set is described as follows: greenhouse visual injury rating, Examples 9-10, corn. Format: in vivo. The following applies: Two Week.
Description: as §1, §2, §3, §4, §5, §6

Another data set has as its system pinto bean. Nature of the data set: greenhouse visual injury rating, Examples 9-10, pinto bean. The settings on record: Two Week. The format is in vivo.
Description: as §1, §2, §3, §4, §5, §6

Another data set has as its system tame oat. Nature of the data set: greenhouse visual injury rating, Examples 9-10, tame oat. The format is in vivo. The settings on record: Two Week.
Description: as §1, §2, §3, §4, §5, §6

Another data set has as its system sunflower. Nature of the data set: greenhouse visual injury rating, Examples 9-10, sunflower. The format is in vivo. The following applies: Two Week.
Description: as §1, §2, §3, §4, §5, §6

The mark [2] stands for this setting: PCC-1189 0.031 LB AE/A + PHOSPHORIC ACID 2 % V/V.
The mark [3] stands for this setting: PCC-1189 0.245 3 AE/A + PHOSPHORIC ACID 2 V/V.
[4] abbreviates: PCC-1189 0.49 3 AE/A + PHOSPHORIC ACID 2 V/V.
Where [5] appears, read: PCC-1189 .0155 LB AE/A + PHOSPHORIC ACID 2 % V/V.
Where [6] appears, read: PCC-1189 .0613 LB AE/A + PHOSPHORIC ACID 2 % V/V.
The mark [7] stands for this setting: PCC-1189 .1225 LB AE/A + PHOSPHORIC ACID 2 % V/V.
The mark [8] stands for this setting: PCC-1189 0.031 LB AE/A + SULFURIC ACID 2 % V/V.
[9] abbreviates: PCC-1189 0.245 LB AE/A + SULFURIC ACID 2 % V/V.
The mark [10] stands for this setting: PCC-1189 0.49 LB AE/A + SULFURIC ACID 2 % V/V.
Where [11] appears, read: PCC-1189 .0155 LB AE/A + SULFURIC ACID 2 % V/V.
[12] abbreviates: PCC-1189 .0613 LB AE/A + SULFURIC ACID 2 % V/V.
[13] abbreviates: PCC-1189 .1225 LB AE/A + SULFURIC ACID 2 % V/V.

Consider `CCc1cnc(C2=NC(C)(C(C)C)C(=O)N2)c(C(=O)O)c1` (centres unmarked) [Imazethapyr], for which, in data set [1], the pKas was 3.9 and the pKa entry is on record as “approximately 3.9”.
Consider Imazamethbenz, for which, in data set [1], the pKas is reported as 2.9 and the pKa entry is reported as “approximately 2.9”.
Regarding `CC(C)C1(C)N=C(c2nc3ccccc3cc2C(=O)O)NC1=O` (centres unmarked) [Imazaquin], in data set [1], the pKas is 3.8 and the pKa entry is on record as “approximately 3.8”.
On to `Nc1c(Cl)c(Cl)nc(C(=O)O)c1Cl` [Picloram], for which the pKas in data set [1] was 2.3.
Consider `O=P(O)(O)O` [PHOSPHORIC ACID], for which the “injury rated visually (0=no injury, 100=dead), Wheat” value with wheat (setting [2]), in the data set on wheat (setting [3]), in the data set with wheat (setting [4]), in the data set with wheat (setting [5]), with wheat (setting [6]) and in the data set on wheat (setting [7]) was 0.0 each time. Besides, the “injury rated visually (0=no injury, 100=dead), Corn” value in the data set on corn (setting [2]) is listed as 10.0; in the data set on corn (setting [3]), 10.0; in the data set on corn (setting [4]), 20.0; with corn (setting [5]), 10.0; with corn (setting [6]) it was 15.0; in the data set with corn (setting [7]) it was 10.0. Also, the “injury rated visually (0=no injury, 100=dead), Pinto Bean” value in the data set with pinto bean (setting [2]) came out at 20.0; in the data set with pinto bean (setting [3]), 30.0; in the data set on pinto bean (setting [4]), 30.0; with pinto bean (setting [5]) it was 10.0; with pinto bean (setting [6]) it was 30.0; with pinto bean (setting [7]), 25.0. For the same molecule, the “injury rated visually (0=no injury, 100=dead), Tame Oat” value in the data set on tame oat (setting [2]), in the data set with tame oat (setting [3]), in the data set with tame oat (setting [4]), with tame oat (setting [5]), in the data set with tame oat (setting [6]) and with tame oat (setting [7]) was 0.0 each time. The “injury rated visually (0=no injury, 100=dead), Sunflower” value worked out at 50.0 in the data set with sunflower (setting [2]); 60.0 in the data set with sunflower (setting [3]); 50.0 with sunflower (setting [4]); 50.0 in the data set on sunflower (setting [5]); 40.0 in the data set on sunflower (setting [6]); 50.0 with sunflower (setting [7]).
As to `O=C(O)CCCOc1ccc(Cl)cc1Cl` [2,4-DB], in data set [1], the pKas is 4.8.
In the case of `O=S(=O)(O)O` [SULFURIC ACID], the “injury rated visually (0=no injury, 100=dead), Wheat” value came out at 0.0 in the data set with wheat (setting [8]); 0.0 in the data set with wheat (setting [9]); 10.0 with wheat (setting [10]); 0.0 in the data set on wheat (setting [11]); 0.0 with wheat (setting [12]); 0.0 in the data set with wheat (setting [13]). Moreover, the “injury rated visually (0=no injury, 100=dead), Corn” value amounted to 20.0 in the data set with corn (setting [8]); 20.0 with corn (setting [9]); 20.0 in the data set with corn (setting [10]); 10.0 with corn (setting [11]); 10.0 in the data set on corn (setting [12]); 10.0 in the data set on corn (setting [13]). Besides, the “injury rated visually (0=no injury, 100=dead), Pinto Bean” value in the data set on pinto bean (setting [8]) came to 10.0; in the data set with pinto bean (setting [9]), 20.0; with pinto bean (setting [10]) it was 30.0; in the data set with pinto bean (setting [11]) it was 10.0; in the data set with pinto bean (setting [12]), 0.0; in the data set on pinto bean (setting [13]) it was 10.0. The “injury rated visually (0=no injury, 100=dead), Tame Oat” value was 0.0 in the data set with tame oat (setting [8]); 0.0 with tame oat (setting [9]); 10.0 in the data set on tame oat (setting [10]); 0.0 with tame oat (setting [11]); 0.0 in the data set with tame oat (setting [12]); 0.0 in the data set with tame oat (setting [13]). Besides, the “injury rated visually (0=no injury, 100=dead), Sunflower” value with sunflower (setting [8]) is reported as 30.0; in the data set with sunflower (setting [9]) it was 60.0; in the data set on sunflower (setting [10]) it was 80.0; with sunflower (setting [11]), 30.0; in the data set with sunflower (setting [12]) it was 40.0; in the data set on sunflower (setting [13]), 40.0.

These data come from patent US8759256B2, “Herbicide composition comprising herbicide compound in acid form and acidifying agent” (priority 2001, dated 2014).
